In article PMC2631173 (Chemistry & biology, 2008):

Molecular target: cellular retinoic acid-binding protein I (CRABP I), CPG variant (Mus musculus, UniProt P62965, R132Q)
Test: fluorescence equilibrium titration of […] FlAsH with purified protein, […] EDT

cellular retinoic acid-binding protein I (CRABP I), CPG variant, sequence (P62965 2-137 R132Q): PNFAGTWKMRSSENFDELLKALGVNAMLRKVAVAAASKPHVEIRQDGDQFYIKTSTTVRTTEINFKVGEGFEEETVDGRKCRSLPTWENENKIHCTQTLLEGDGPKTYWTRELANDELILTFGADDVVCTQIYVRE

O=C1OC2(c3ccccc31)c1ccc(O)c([As]3SCCS3)c1Oc1c2ccc(O)c1[As]1SCCS1 [FlAsH]
Kd: 400 nM
